The supplement of paper PMC10307832

What was measured:
Assay in all cases: relative viability (nuclei count vs DMSO), 5 days (fraction); higher = more cells survive
[1] = compound: C1=CC=C(C(=C1)C2=CC=C(C=C2)C3=CSC4=C3C(=C(C(=O)N4)C#N)O)O + NC(=O)Nc1cc(-c2cccc(F)c2)sc1C(=O)N[C@H]1CCCNC1 [AZD7762] (partner 0.2 µM)
Procedure, shortened: (§1)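 Five library-drug doses in √10 steps were combined with a fixed anchor-drug dose, or a single drug was given alone, by pin tool to lung cancer cell lines in 1536-well plates the day after seeding. Nuclei were stained and counted after 5 days. Relative viability is the nuclei count in treated wells over that in vehicle wells, taken as the median of duplicate plates.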

[2] = compound: C1=CC=C(C(=C1)C2=CC=C(C=C2)C3=CSC4=C3C(=C(C(=O)N4)C#N)O)O + O=C(CCCCCCC(=O)Nc1ccccc1)NO [Vorinostat] (partner 1 µM)
Procedure, shortened: as §1

[3] = compound: C1=CC=C(C(=C1)C2=CC=C(C=C2)C3=CSC4=C3C(=C(C(=O)N4)C#N)O)O + O=C(c1cc(Cc2n[nH]c(=O)c3ccccc23)ccc1F)N1CCN(C(=O)C2CC2)CC1 [Olaparib] (partner 8 µM)
Procedure, shortened: as §1

TGX 221 + Vorinostat = compound: CC1=CN2C(=O)C=C(N=C2C(=C1)C(C)NC3=CC=CC=C3)N4CCOCC4 [TGX 221] + O=C(CCCCCCC(=O)Nc1ccccc1)NO [Vorinostat] (partner 1 µM)
Procedure, shortened: as §1

Cell Line	relative viability ([1]; first compound 0.08 µM)	relative viability ([1]; first compound 0.253 µM)	relative viability ([1]; first compound 0.8 µM)	relative viability ([1]; first compound 2.53 µM)	relative viability ([1]; first compound 8 µM)	relative viability ([2]; first compound 0.08 µM)	relative viability ([2]; first compound 0.253 µM)	relative viability ([2]; first compound 0.8 µM)	relative viability ([2]; first compound 2.53 µM)	relative viability ([2]; first compound 8 µM)	relative viability ([3]; first compound 0.08 µM)	relative viability ([3]; first compound 0.253 µM)	relative viability ([3]; first compound 0.8 µM)	relative viability ([3]; first compound 2.53 µM)	relative viability ([3]; first compound 8 µM)	relative viability (TGX 221 + Vorinostat; first compound 0.08 µM)	relative viability (TGX 221 + Vorinostat; first compound 0.253 µM)	relative viability (TGX 221 + Vorinostat; first compound 0.8 µM)	relative viability (TGX 221 + Vorinostat; first compound 2.53 µM)	relative viability (TGX 221 + Vorinostat; first compound 8 µM)
201T	0.634	0.616	0.652	0.704	0.717	0.874	0.952	0.811	1	0.902	0.652	0.812	0.828	0.74	0.885	1	0.956	0.902	0.927	0.879
A549	–	–	–	–	–	–	–	–	–	–	0.275	0.208	0.314	0.375	0.379	–	–	–	–	–
A-427	0.672	0.81	0.746	0.776	0.716	0.923	0.861	0.864	0.904	0.859	0.781	0.71	0.849	0.712	0.793	0.872	0.876	0.817	0.847	0.856
ABC-1	0.781	0.881	0.799	0.855	0.827	0.813	0.921	1.03	0.956	0.768	0.856	1.22	1.06	0.701	0.829	1.2	0.753	0.996	0.981	1.29
BEN	0.647	0.692	0.675	0.807	0.73	0.567	0.678	0.59	0.531	0.573	0.987	1.38	1.03	1.19	0.971	0.588	0.572	0.523	0.501	0.547
CAL-12T	0.671	0.653	0.571	0.615	0.648	0.65	0.817	0.884	0.743	0.643	0.724	0.834	0.824	0.856	0.651	0.826	0.7	0.75	0.876	0.707
COR-L23	–	–	–	–	–	0.404	0.477	0.409	0.38	0.379	0.318	0.343	0.32	0.365	0.322	0.425	0.409	0.436	0.469	0.336
COR-L 105	–	–	–	–	–	0.763	0.807	0.805	1.01	0.706	0.695	0.793	1.03	0.688	0.859	0.906	0.884	0.869	0.726	0.82
Calu-6	–	–	–	–	–	–	–	–	–	–	0.721	0.595	0.643	0.63	0.615	–	–	–	–	–
ChaGo-K-1	0.834	0.936	0.904	0.92	0.838	0.733	0.821	0.801	0.822	0.683	0.388	0.443	0.396	0.439	0.45	0.742	0.758	0.749	0.727	0.707
EBC-1	–	–	–	–	–	–	–	–	–	–	0.741	0.701	0.664	0.719	0.587	–	–	–	–	–
EKVX	0.696	0.699	0.725	0.746	0.595	0.672	1.01	0.758	0.653	0.561	0.98	0.929	0.778	0.856	0.716	0.767	0.758	0.841	0.608	0.539
EMC-BAC-2	1.05	1.21	1.11	0.981	0.939	0.463	–	0.331	0.435	0.362	0.48	0.58	0.438	0.484	0.496	0.414	0.461	0.426	0.493	0.424
EPLC-272H	0.258	–	0.247	0.208	0.183	0.466	0.387	0.357	0.401	0.42	0.665	0.753	0.856	0.917	0.509	0.47	0.358	0.469	0.426	0.369
H3255	0.898	1.07	0.757	0.9	0.848	0.823	0.863	–	0.886	0.784	0.612	0.67	0.524	0.624	0.574	0.779	0.823	0.816	0.782	0.845
HARA	0.286	0.361	0.345	0.284	0.304	–	0.792	0.701	–	0.371	0.687	1.55	0.727	1.1	0.762	0.508	0.475	0.575	0.517	0.471
HCC-15	1.4	1.38	1.46	1.32	0.93	0.861	0.954	0.869	0.905	0.725	0.797	0.789	0.705	0.728	0.802	0.753	0.787	0.977	0.839	0.787
HCC-44	1.13	1.11	1.01	1.01	1.02	1.15	1.12	1.13	1.08	1.06	0.979	1.14	1.01	1.01	0.887	1.12	1.22	1.17	1.17	1.21
HCC-78	0.682	0.744	0.638	0.502	0.551	0.514	0.678	0.448	0.523	0.352	0.815	1.4	0.91	0.787	0.711	0.518	0.449	0.428	0.338	0.362
HCC-366	–	0.342	0.259	0.281	0.273	–	0.35	0.348	0.309	0.315	–	0.384	0.369	0.41	0.302	0.357	0.327	0.365	0.292	0.351

Cell Line	relative viability ([1]; first compound 0.08 µM)	relative viability ([1]; first compound 0.253 µM)	relative viability ([1]; first compound 0.8 µM)	relative viability ([1]; first compound 2.53 µM)	relative viability ([1]; first compound 8 µM)	relative viability ([2]; first compound 0.08 µM)	relative viability ([2]; first compound 0.253 µM)	relative viability ([2]; first compound 0.8 µM)	relative viability ([2]; first compound 2.53 µM)	relative viability ([2]; first compound 8 µM)	relative viability ([3]; first compound 0.08 µM)	relative viability ([3]; first compound 0.253 µM)	relative viability ([3]; first compound 0.8 µM)	relative viability ([3]; first compound 2.53 µM)	relative viability ([3]; first compound 8 µM)	relative viability (TGX 221 + Vorinostat; first compound 0.08 µM)	relative viability (TGX 221 + Vorinostat; first compound 0.253 µM)	relative viability (TGX 221 + Vorinostat; first compound 0.8 µM)	relative viability (TGX 221 + Vorinostat; first compound 2.53 µM)	relative viability (TGX 221 + Vorinostat; first compound 8 µM)
HCC-827	0.233	0.192	0.199	0.231	0.176	0.666	0.946	0.95	0.872	0.918	0.739	0.65	0.59	0.662	0.622	0.777	0.922	0.888	0.891	0.852
HOP-62	0.533	0.548	0.376	0.704	0.474	0.586	0.856	0.607	0.647	0.522	0.592	0.471	0.515	0.844	0.233	0.57	0.581	0.667	0.521	0.542
IA-LM	–	–	–	–	–	–	1.37	0.856	1	0.376	0.799	0.967	0.9	0.799	0.771	–	0.981	1.01	0.827	0.941
LC-2-ad	0.873	0.798	0.871	0.872	0.824	0.627	0.643	0.705	0.722	0.654	0.702	0.899	0.701	0.744	0.76	0.676	0.682	0.761	0.71	0.67
LCLC-97TM1	0.225	0.259	0.258	0.278	0.148	0.614	1.42	0.636	0.724	0.431	0.223	0.357	0.431	0.429	0.445	0.819	0.459	0.856	0.615	0.847
LCLC-103H	0.737	0.731	0.803	0.728	0.743	0.722	0.81	0.707	0.767	0.728	0.605	0.684	0.789	0.832	0.718	0.761	0.806	0.708	0.647	0.766
LK-2	0.309	0.522	0.277	0.517	0.274	0.22	0.26	0.28	0.321	0.255	0.568	0.899	0.883	0.822	0.753	0.356	0.309	0.249	0.415	0.505
LOU-NH91	0.79	0.804	0.745	0.733	0.701	0.892	0.926	0.888	0.886	0.848	0.877	1.01	0.872	0.959	0.877	0.888	0.963	0.957	0.902	0.9
NCI-H520	–	–	–	–	–	0.655	0.571	0.69	0.726	0.604	0.283	0.318	0.363	0.365	0.347	0.599	0.564	0.627	0.493	0.53
NCI-H661	–	–	–	–	–	0.803	0.836	0.772	0.84	0.6	0.64	0.799	0.724	0.843	0.708	0.794	0.755	0.78	0.925	0.785
NCI-H1299	–	–	–	–	–	–	–	–	–	–	1.01	0.992	0.959	0.942	0.967	–	–	–	–	–
NCI-H1650	–	–	–	–	–	0.462	0.546	0.498	0.531	0.435	0.716	1.03	0.742	0.759	0.645	0.482	0.478	0.521	0.676	0.48
NCI-H1703	0.113	0.147	0.111	0.15	0.148	–	–	–	–	–	0.422	0.417	0.682	0.336	0.362	–	–	–	–	–
NCI-H2009	–	–	–	–	–	0.728	0.715	0.859	0.716	0.638	0.649	0.668	0.924	0.591	0.714	0.731	0.687	0.72	0.819	0.559
NCI-H2023	–	–	–	–	–	0.677	0.793	0.56	0.725	0.453	0.467	0.49	0.495	0.487	0.607	0.552	0.701	0.759	0.495	0.502
NCI-H2228	–	–	–	–	–	0.555	0.557	0.648	0.524	0.36	0.425	0.604	0.568	0.613	0.575	0.462	0.324	0.599	0.575	0.302
SK-LU-1	–	–	–	–	–	0.737	0.727	0.655	0.761	0.671	0.465	0.431	0.435	0.608	0.408	0.644	0.682	0.72	0.776	0.712
SK-MES-1	–	–	–	–	–	1.1	1.17	0.911	1.06	0.923	0.863	0.816	0.858	0.651	0.611	1.03	0.997	1.16	0.987	0.894
SW 1573	–	–	–	–	–	0.701	0.723	0.716	0.76	0.59	0.51	0.464	0.502	0.439	0.384	0.648	0.655	0.739	0.888	0.778
UMC-11	–	–	–	–	–	–	0.352	0.409	0.381	0.412	–	0.396	0.435	0.425	0.417	0.417	0.391	0.402	0.373	0.359
